This note sets out measurements from US20020049199A1, “N-linked carbamates and ureas of heterocyclic thioesters” (priority 1996, published 2002).

Like-named read-outs stand apart in the source and are kept apart here.

One test concerns the target FKBP (Homo sapiens, UniProt P62942). The test is described as follows: Ki test procedure: inhibition of peptidyl-prolyl isomerase (rotamase) activity, chymotrypsin-coupled assay. It counts as biochemical. Particulars: apparent Ki. From the text: Inhibition of the peptidyl-prolyl isomerase (rotamase) activity of the inventive compounds can be evaluated by known methods described in the literature (Harding, et al., Nature, 1989, 341:758-760; Holt et al. J. Am. Chem. Soc., 115:9923-9938). The cis-trans isomerization of an alanine-proline bond in a model substrate, N-succinyl-Ala-Ala-Pro-Phe-p-nitroanilide, is monitored spectrophotometrically in a chymotrypsin-coupled assay, which releases para-nitroanilide from the trans form of the substrate. The inhibition of this reaction caused by the addition of different concentrations of inhibitor is determined, and the data is analyzed as a change in first-order rate constant as a function of inhibitor concentration to yield the apparent Ki values.
In a plastic cuvette are added […] of ice cold assay buffer (25 mM HEPES, pH 7.8, 100 mM NaCl), […] of FKBP (2.5 mM in 10 mM Tris-Cl pH 7.5, 100 mM NaCl, 1 mM dithiothreitol), 25 mL of chymotrypsin (50 mg/ml in 1 mM HCl) and […] of test compound at various concentrations in dimethyl sulfoxide. The reaction is initiated by the addition of 5 mL of substrate (succinyl-Ala-Phe-Pro-Phe-para-nitroanilide, 5 mg/mL in 2.35 mM LiCl in trifluoroethanol).
The absorbance at 390 nm versus time is monitored for 90 seconds using a spectrophotometer and the rate constants are determined from the absorbance versus time data files.
The data for these experiments for representative compounds are presented in Table II under the column “Ki”.

In test [1] the test system is chick dorsal root ganglia. The test is described as follows: Chick dorsal root ganglion cultures and neurite outgrowth. Conditions: neurite outgrowth, 48 hours after drug treatment, Table II (b), ranked potency, read-out: ED50, nMa. It counts as cell-based. Here is the method: Dorsal root ganglia were dissected from chick embryos of ten day gestation. Whole ganglion explants were cultured on thin layer Matrigel-coated 12 well plates with Liebovitz L15 plus high glucose media supplemented with 2 mM glutamine and 10% fetal calf serum, and also containing 10 μM cytosine β-D arabinofuranoside (Ara C) at 37° C. in an environment containing 5% CO2. Twenty-four hours later, the DRGs were treated with various immunophilin ligands. Forty-eight hours after drug treatment, the ganglia were visualized under phase contrast or Hoffman Modulation contrast with a Zeiss Axiovert inverted microscope. Photomicrographs of the explants were made, and neurite outgrowth was quantitated. Neurites longer than the DRG diameter were counted as positive, with total number of neurites quantitated per each experimental condition. Three to four DRGs are cultured per well, and each treatment was performed in duplicate.
The data for these experiments for representative compounds are presented in Table II under the column “ED50”.

Sequence of FKBP (P62942 whole entry): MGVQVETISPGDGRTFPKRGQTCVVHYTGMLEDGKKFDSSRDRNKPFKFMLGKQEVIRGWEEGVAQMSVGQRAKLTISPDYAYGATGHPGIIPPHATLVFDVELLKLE

In the case of “3-Cyclohexylpropyl (2S)-1-[(2,6-diisopropylphenyl)carbamoyl]-2-pyrrolidinecarbothioate [Compound 31]”, the Ki at FKBP (Table II (a), ranked potency) was > 500 nM. Regarding “3-(3,4,5-Trimethoxyphenyl)propyl (2S)-1-(hexylcarbamoyl)-2-pyrrolidinecarbothioate [Compound 39]”, the Ki at FKBP (Table II (c), numerical) is 31 nM.

In the case of “3-(4-Methylphenyl)propyl (2S)-1-(tert-butylcarbamoyl)-2-pyrrolidinecarbothioate [Compound 26]”, the Ki at FKBP (Table II (c), numerical) stood at 739 nM. In addition, in test [1], the EC50 was < 1 nM.

Turning to “3-(4-Methylphenyl)propyl (2S)-1-(1-adamantylcarbamoyl)-2-pyrrolidinecarbothioate [Compound 25]”, the Ki at FKBP (Table II (c), numerical) amounted to 209 nM. Besides, the EC50 in test [1] was in the range of 1 to 50 nM. As to “3-(3-Fluorophenyl)propyl (2S)-1-(Cyclohexylcarbamoyl)-2-pyrrolidinecarbothioate [Compound 21]”, on FKBP (Table II (a), ranked potency), the Ki lay within 1 to 50 nM. The EC50 in test [1] was < 1 nM. As to “3-(2,3,5-Trimethylphenyl)propyl 1-(cyclohexylcarbamoyl)-2-pyrrolidinecarbothioate [Compound 20]”, at FKBP (Table II (a), ranked potency), the Ki was 51 to 200 nM. In test [1], the EC50 lay in the range of 1 to 50 nM. Regarding `O=C(SCCCc1ccccc1)[C@@H]1CCCN1C(=S)NC12CC3CC(CC(C3)C1)C2` [Compound 38], on FKBP (Table II (c), numerical), the Ki is 659 nM. Turning to “3-(2-Fluorophenyl)propyl (2S)-1-(1-adamantylcarbamoyl)-2-pyrrolidinecarbothioate [Compound 22]”, the Ki at FKBP (Table II (a), ranked potency) was in the range of 1 to 50 nM. The EC50 in test [1] is < 1 nM. On to “3-(4-Methylphenyl)propyl (2S)-1-(cyclohexylcarbamoyl)-2-pyrrolidinecarbothioate [Compound 24]”, for which, on FKBP (Table II (c), numerical), the Ki came to 605 nM. Besides, in test [1], the EC50 lay within 1 to 50 nM. `CCC(C)(C)NC(=O)N1CCC[C@H]1C(=O)SCCCc1cccnc1` [Compound 2]: the Ki at FKBP (Table II (a), ranked potency) fell in the range of 51 to 200 nM. In addition, the EC50 in test [1] (Gallus gallus) was 1 to 50 nM. With “3-(3,5-Dimethoxyphenyl)propyl (2S)-1-{[(1S)-1-(1-naphthyl)ethyl]-carbamoyl}-2-pyrrolidinecarbothioate [Compound 28]”, the Ki at FKBP (Table II (c), numerical) came to 8090 nM. Moreover, the EC50 in test [1] was < 1 nM. Turning to “3-(3,4,5-Trimethoxyphenyl)propyl (2S)-1-(benzylcarbamoyl)-2-pyrrolidinecarbothioate [Compound 40]”, the Ki at FKBP (Table II (c), numerical) was determined as 82 nM.

Consider “3,3-Diphenylpropyl (2S)-1-[(2,4-dimethoxyphenyl)carbamoyl]-2-pyrrolidinecarbothioate [Compound 33]”, for which the Ki at FKBP (Table II (a), ranked potency) is > 500 nM. “3-Phenylpropyl (2S)-1-(dimethylcarbamoyl)-2-pyrrolidinecarbothioate [Compound 41]”: the Ki on FKBP (Table II (c), numerical) worked out at 722 nM.

In the case of “3-Phenylpropyl (2S)-1-(1-cyclohexylcarbamoyl)-2-pyrrolidinecarbothioate [Compound 17]”, the Ki at FKBP (Table II (a), ranked potency, listed as 4) fell in the range of 51 to 200 nM. Further, in test [1], the EC50 lay in the range of 51 to 200 nM.

In the case of `O=C(SCCCc1ccccc1)[C@@H]1CCCN1C(=O)N1CCOCC1` [Compound 43, 3-Phenylpropyl (2S)-1-(morphilinocarbamoyl)-2-pyrrolidinecarbothioate], the Ki on FKBP (Table II (c), numerical) was 3740 nM.

As to “Phenethyl (2S)-N-(cyclohexylcarbamoyl)-2-pyrrolidinecarbothioate [Compound 18]”, the Ki at FKBP (Table II (a), ranked potency) is 51 to 200 nM. The EC50 in test [1] was 1 to 50 nM. In the case of “3-(2,3,5-Trimethylphenyl)propyl 1-(1-adamantylcarbamoyl)-2-pyrrolidinecarbothioate [Compound 19]”, on FKBP (Table II (a), ranked potency), the Ki was in the range of 201 to 500 nM. In addition, in test [1], the EC50 fell in the range of 51 to 200 nM.

With `O=C(SCCCc1cccnc1)[C@@H]1CCCN1C(=S)NC1CCCCC1` [Compound 7, 3-(3-pyridyl)-1-propylmercaptyl 2S-1-[(cyclohexyl)thiocarbamoyl]-pyrrolidine-2-carboxylate], the Ki on FKBP (Table II (a), ranked potency) was 51 to 200 nM. Further, in test [1], the EC50 lay within 1 to 50 nM. With “3,3-Diphenylpropyl (2S)-1-[(1,1,3,3-tetramethylbutyl)carbamoyl]-2-pyrrolidinecarbothioate [Compound 29]”, at FKBP (Table II (c), numerical), the Ki stood at 5150 nM. The EC50 in test [1] fell in the range of 51 to 200 nM.

On to “3-Phenylpropyl (2S)-1-(1-cyclohexylcarbamoyl)-2-pyrrolidinecarbothioate [Compound 37]”, for which, on FKBP (Table II (a), ranked potency, listed as 23), the Ki was > 500 nM. With “3-Cyclohexylpropyl (2S)-1-(hexylcarbamoyl)-2-pyrrolidinecarbothioate [Compound 32]”, at FKBP (Table II (a), ranked potency), the Ki is > 500 nM. As for “3-Phenylpropyl (2S)-1-(1-pyrrolidinylcarbamoyl)-2-pyrrolidinecarbothioate [Compound 42]”, the Ki at FKBP (Table II (c), numerical) amounted to 525 nM. Regarding “3-Phenylpropyl (2S)-1-[(2,4-Dimethoxyphenyl)carbamoyl]-2-pyrrolidinecarbothioate [Compound 35]”, the Ki on FKBP (Table II (a), ranked potency) is > 500 nM; at FKBP (Table II (c), numerical, listed as 21), 795 nM. Regarding `O=C(SCCCc1ccccc1Cl)[C@@H]1CCCN1C(=O)NC1CCCCC1` [Compound 27], the Ki on FKBP (Table II (c), numerical) stood at 1490 nM. Also, the EC50 in test [1] lay in the range of 1 to 50 nM.

For the compound “3-Phenylpropyl (2S)-1-(1-adamantylcarbamoyl)-2-pyrrolidinecarbothioate [Compound 36]”, on FKBP (Table II (a), ranked potency), the Ki was 201 to 500 nM. As for “3-(2-Fluorophenyl)propyl (2S)-1-(cyclohexylcarbamoyl)-2-pyrrolidinecarbothioate [Compound 23]”, on FKBP (Table II (a), ranked potency), the Ki is 1 to 50 nM. Moreover, the EC50 in test [1] lay within 1 to 50 nM.

Consider “3-(3,5-Dimethoxyphenyl)propyl (2S)-1-{[(1S,2R)-2-phenyl-cyclopropyl]carbamoyl]-2-pyrrolidinecarbothioate [Compound 34]”, for which the Ki on FKBP (Table II (a), ranked potency) is > 500 nM. As to `CCC(C)CNC(=O)N1CCC[C@H]1C(=O)SCCCc1cccnc1` (stereo partly drawn) [Compound 1, 3-(3-Pyridyl)-1-propylmercaptyl 2S-1-[(2-methylbutyl)carbamoyl]pyrrolidine-2-carboxylate], on FKBP (Table II (a), ranked potency), the Ki was in the range of 1 to 50 nM. Besides, the EC50 in test [1] (Gallus gallus) is < 1 nM.
